Data as given in the NIST ThermoML archive (doi:10.1016/j.jct.2011.10.023).

Conditions: Liquid, Vibrating tube method

CCCCCCCCO [octan-1-ol]
mass density [kg/m3]
Conditions	278.15 K	288.15 K	298.15 K	308.15 K	318.15 K	328.15 K	338.15 K	348.15 K	358.15 K
100 kPa	835.2	828.4	821.4	814.5	807.5	800.4	793.2	785.6	778
1000 kPa	835.7	829	822	815.1	808.1	801.1	793.9	786.4	778.8
5000 kPa	838	831.5	824.6	817.8	811	804.1	796.9	789.8	782.3
10000 kPa	841	834.4	827.7	821.1	814.4	807.7	800.8	793.6	786.4
15000 kPa	843.7	837.3	830.7	824.2	817.7	811.1	804.4	797.4	790.4
20000 kPa	846.4	840.1	833.6	827.2	820.8	814.4	807.8	801	794.1
25000 kPa	849	842.8	836.4	830.1	823.8	817.5	811.1	804.5	797.7
30000 kPa	851.5	845.5	839.1	833	826.8	820.5	814.2	807.8	801.1
35000 kPa	854	848	841.8	835.7	829.6	823.5	817.3	810.9	804.5
40000 kPa	856.4	850.5	844.4	838.4	832.4	826.4	820.3	814	807.7
45000 kPa	858.8	852.9	846.9	841	835.1	829.1	823.1	817	810.8
50000 kPa	861.1	855.3	849.4	843.5	837.7	831.9	825.9	819.9	813.6
55000 kPa	863.4	857.6	851.7	846	840.3	834.5	828.7	822.7	816.7
60000 kPa	865.5	859.8	853.9	848.2	842.6	836.9	831.2	825.5	819.6

CCCCCO [pentan-1-ol]
mass density [kg/m3]
Conditions	278.15 K	288.15 K	298.15 K	308.15 K	318.15 K	328.15 K	338.15 K	348.15 K	358.15 K
100 kPa	825.2	818	810.7	803.3	795.8	788.2	780.3	772.3	763.8
1000 kPa	825.8	818.7	811.3	804	796.6	789	781.2	773.1	764.8
5000 kPa	828.5	821.5	814.2	807	799.8	792.3	784.8	776.9	768.8
10000 kPa	831.6	824.8	817.7	810.7	803.6	796.3	788.9	781.2	773.5
15000 kPa	834.7	828	821	814	807.2	800.1	792.9	785.5	777.9
20000 kPa	837.6	831.1	824.3	817.5	810.7	803.8	796.7	789.5	782.1
25000 kPa	840.4	834	827.3	820.7	814	807.2	800.3	793.3	786.1
30000 kPa	843.2	836.9	830.3	823.8	817.3	810.6	803.8	796.9	789.9
35000 kPa	845.9	839.7	833.2	826.8	820.4	813.8	807.2	800.4	793.6
40000 kPa	848.6	842.4	836	829.7	823.4	817	810.5	803.8	797.1
45000 kPa	851.1	845	838.7	832.5	826.3	820	813.6	807.1	800.5
50000 kPa	853.6	847.6	841.4	835.3	829.1	822.9	816.6	810.3	803.8
55000 kPa	856.1	850.1	844	838	831.9	825.8	819.6	813.3	807
60000 kPa	858.4	852.5	846.4	840.4	834.6	828.4	822.5	816.2	810

CCCO [propan-1-ol]
mass density [kg/m3]
Conditions	278.15 K	288.15 K	298.15 K	308.15 K	318.15 K	328.15 K	338.15 K	348.15 K	358.15 K
100 kPa	815.7	807.8	799.8	791.6	783.4	775	766.3	757.2	747.7
1000 kPa	816.4	808.5	800.5	792.4	784.2	775.9	767.2	758.3	748.8
5000 kPa	819.4	811.6	803.8	795.8	787.9	779.7	771.3	762.6	753.5
10000 kPa	822.8	815.3	807.6	800.1	792.2	784.2	776.1	767.7	758.8
15000 kPa	826.2	818.9	811.4	803.8	796.3	788.5	780.6	772.5	764
20000 kPa	829.4	822.3	814.9	807.5	800.2	792.6	784.9	777	768.7
25000 kPa	832.6	825.5	818.3	811.1	803.9	796.5	789	781.3	773.3
30000 kPa	835.7	828.7	821.6	814.5	807.5	800.2	792.9	785.4	777.5
35000 kPa	838.6	831.8	824.8	817.8	810.9	803.8	796.6	789.3	781.6
40000 kPa	841.5	834.7	827.9	821	814.2	807.2	800.2	793	785.5
45000 kPa	844.3	837.6	830.9	824.1	817.5	810.6	803.7	796.6	789.3
50000 kPa	847.1	840.4	833.8	827.1	820.5	813.8	807	800.1	792.9
55000 kPa	849.7	843.1	836.6	830	823.6	816.9	810.3	803.5	796.4
60000 kPa	852.1	845.6	839.2	832.7	825.8	819.8	813.4	806.5	799.6
